Results on 15 compounds are retold here after publication PMC8142146 (Bioorganic chemistry, 2020).

The term inhibition denotes the drop in the measured response relative to a control, in per cent. In general, IC50 refers to the concentration that gives 50% inhibition.

In assay [1] the target is T1, PARP1 (Homo sapiens, UniProt P09874). The assay is described as follows: in vitro PARP1 enzyme assay. The following applies: for fold improvement in PARP1 activity compared to lead 4: vs unsubstituted lead 4 (IC50 = 5.8 μM); for inhibition at 5 µM: read-out: PARP1 inhibition at 5 μM.
T1 sequence (P09874 whole entry): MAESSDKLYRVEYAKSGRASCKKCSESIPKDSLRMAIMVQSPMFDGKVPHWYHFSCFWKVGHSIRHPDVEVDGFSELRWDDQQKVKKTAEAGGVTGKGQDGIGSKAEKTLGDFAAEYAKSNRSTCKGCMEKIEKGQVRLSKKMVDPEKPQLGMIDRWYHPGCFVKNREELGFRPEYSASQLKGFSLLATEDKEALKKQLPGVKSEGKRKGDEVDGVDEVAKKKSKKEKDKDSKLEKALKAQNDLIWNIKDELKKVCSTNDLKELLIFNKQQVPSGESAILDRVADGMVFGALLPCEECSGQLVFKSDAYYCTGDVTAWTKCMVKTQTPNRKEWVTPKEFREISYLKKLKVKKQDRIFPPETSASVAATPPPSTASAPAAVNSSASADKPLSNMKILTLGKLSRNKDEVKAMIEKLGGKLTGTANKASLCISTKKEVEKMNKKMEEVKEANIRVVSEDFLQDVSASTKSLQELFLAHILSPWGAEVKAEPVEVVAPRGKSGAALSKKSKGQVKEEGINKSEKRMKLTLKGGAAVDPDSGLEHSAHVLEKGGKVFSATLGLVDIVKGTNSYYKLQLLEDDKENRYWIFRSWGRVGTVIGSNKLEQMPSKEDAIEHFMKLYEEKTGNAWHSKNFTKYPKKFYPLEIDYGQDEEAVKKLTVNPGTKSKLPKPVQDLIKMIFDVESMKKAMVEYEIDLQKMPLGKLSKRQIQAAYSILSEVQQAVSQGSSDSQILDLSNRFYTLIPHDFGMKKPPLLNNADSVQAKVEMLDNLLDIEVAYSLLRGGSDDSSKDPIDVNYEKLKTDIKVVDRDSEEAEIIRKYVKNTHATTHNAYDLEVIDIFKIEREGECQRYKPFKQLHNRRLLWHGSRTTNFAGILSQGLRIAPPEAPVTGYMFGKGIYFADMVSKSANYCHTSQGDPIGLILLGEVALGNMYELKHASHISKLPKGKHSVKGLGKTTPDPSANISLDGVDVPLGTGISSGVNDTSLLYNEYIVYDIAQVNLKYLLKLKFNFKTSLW
In assay [2] the target is T1, PARP1. The following applies: read-out: PARP1 IC50, literature value; cited from earlier work.
Assay [3] addresses T1, PARP1. Put plainly: BPS PARP1 Chemiluminescent Activity Assay Kit. The format is biochemical.

Structures are written as SMILES. Like-named read-outs stand apart in the source and are kept apart here. Some results are limits rather than exact numbers.

For the compound `CS(=O)(=O)OC[C@@H]1COc2cccc(C(N)=O)c2O1` [Compound 21b, (S)-(8-Carbamoyl-2,3-dihydrobenzo[b][1,4]dioxin-2-yl)methyl methanesulfonate], the “fold improved PARP1 activity over 25a” value at PARP1 [1] (vs hydroxymethyl precursor 25a) is on record as ~ 10 fold. The “fold improvement in PARP1 activity compared to lead 4” value on PARP1 [1] is given as ~ 8 fold. On to `CN1CCN(C[C@H]2COc3c(cccc3C(N)=O)O2)CC1` [Compound 22a, (S)-2-((4-Methylpiperazin-1-yl)methyl)-2,3-dihydrobenzo[b][1,4]dioxine-5-carboxamide], for which the inhibition at 5 µM at PARP1 [1] is less than 20%.

`CN1CCN(C[C@@H]2COc3cccc(C(N)=O)c3O2)CC1` [Compound 22b, (R)-3-((4-Methylpiperazin-1-yl)methyl)-2,3-dihydrobenzo[b][1,4]dioxine-5-carboxamide]: on PARP1 [1], the inhibition at 5 µM was less than 20%.

Regarding `NC(=O)c1cccc2c1OC[C@H](CN1CCN(c3ncccn3)CC1)O2` [Compound 23a, (S)-2-((4-(Pyrimidin-2-yl)piperazin-1-yl)methyl)-2,3-dihydrobenzo[b][1,4]dioxine-5-carboxamide], at PARP1 [1], the inhibition at 5 µM was less than 20%. For the compound `NC(=O)c1cccc2c1O[C@H](CN1CCN(c3ncccn3)CC1)CO2` [Compound 23b, (R)-3-((4-(Pyrimidin-2-yl)piperazin-1-yl)methyl)-2,3-dihydrobenzo[b][1,4]dioxine-5-carboxamide], the inhibition at 5 µM at PARP1 [1] was less than 20%. Turning to `CS(=O)(=O)OC[C@H]1COc2cccc(C(N)=O)c2O1` [Compound 26b, (R)-(8-Carbamoyl-2,3-dihydrobenzo[b][1,4]dioxin-2-yl)methyl methanesulfonate], the “fold improvement in PARP1 activity compared to lead 4” value at PARP1 [1] is ~ 5 fold. Take `CN1CCN(C[C@@H]2COc3c(cccc3C(N)=O)O2)CC1` [Compound 27a, (R)-2-((4-Methylpiperazin-1-yl)methyl)-2,3-dihydrobenzo[b][1,4]dioxine-5-carboxamide]: on PARP1 [1], the inhibition at 5 µM was less than 20%. For the compound `CN1CCN(C[C@H]2COc3cccc(C(N)=O)c3O2)CC1` [Compound 27b, (S)-3-((4-Methylpiperazin-1-yl)methyl)-2,3-dihydrobenzo[b][1,4]dioxine-5-carboxamide], the inhibition at 5 µM at PARP1 [1] was less than 20%.

In the case of `NC(=O)c1cccc2c1OC[C@@H](CN1CCN(c3ncccn3)CC1)O2` [Compound 28a, (R)-2-((4-(Pyrimidin-2-yl)piperazin-1-yl)methyl)-2,3-dihydrobenzo[b][1,4]dioxine-5-carboxamide], the inhibition at 5 µM on PARP1 [1] was less than 20%. For the compound `NC(=O)c1cccc2c1O[C@@H](CN1CCN(c3ncccn3)CC1)CO2` [Compound 28b, (S)-3-((4-(Pyrimidin-2-yl)piperazin-1-yl)methyl)-2,3-dihydrobenzo[b][1,4]dioxine-5-carboxamide], the inhibition at 5 µM on PARP1 [1] is less than 20%. On to `NC(=O)c1cccc2c1OCO2` [Compound 31, Benzo[d][1,3]dioxole-4-carboxamide], for which the IC50 at PARP1 [2] is 5.3 µM. Take `NC(=O)c1cccc2c1OCCCO2` [Compound 32, 3,4-Dihydro-2H-benzo[b][1,4]dioxepine-6-carboxamide]: the inhibition at 2.5 µM at PARP1 [1] (read-out: PARP1 inhibition at 2.5 μM) worked out at 15%. As to `NC(=O)c1cccc2c1OCCN2` [Compound 44, 3,4-Dihydro-2H-benzo[b][1,4]oxazine-8-carboxamide], the “fold less potent than 4 (PARP1)” value on PARP1 [1] (vs 4) is recorded as ~ 2 fold.

With `NC(=O)c1cccc2c1OCC(=O)N2` [Compound 45, 3-Oxo-3,4-dihydro-2H-benzo[b][1,4]oxazine-8-carboxamide], the “fold enhanced PARP1 activity in comparison to 44” value at PARP1 [1] (vs 44) was found to be 15 fold. For the compound `NC(=O)c1cccc2c1O/C(=C\c1ccc(C(=O)O)cc1)C(=O)N2` [Compound 50, (Z)-2-(4-Carboxybenzylidene)-3-oxo-3,4-dihydro-2H-benzo[b][1,4]oxazine-8-carboxamide], on PARP1 [3], the IC50 amounted to 0.42 ± 0.046 µM.
